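Dose response: 5 concentrations. Exposure: 48 h. Format: 96-well plates. Endpoint: linear interpolation; highest concentration if not reached. GI50 is the concentration that inhibits growth by half. TGI marks complete inhibition of growth.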
Legend:
Test in all cases: growth of human tumour cells (NCI), 48 h
RPMI-8226 leukemia = tested on: RPMI-8226 leukemia
SF-268 CNS = tested on: SF-268 CNS
HCC-2998 colon = tested on: HCC-2998 colon
KM12 colon = tested on: KM12 colon
UACC-62 melanoma = tested on: UACC-62 melanoma
A549 NSCLC = tested on: A549 NSCLC
MDA-MB-435 = tested on: MDA-MB-435
HOP-92 NSCLC = tested on: HOP-92 NSCLC
UACC-257 melanoma = tested on: UACC-257 melanoma
SR leukemia = tested on: SR leukemia

## N#CC1=C(N)Oc2c(ccc3ccccc23)C1c1cc2ccccc2n2nnnc12 (stereo not given)
RPMI-8226 leukemia
  GI50: 0.927 µM
  TGI: > 100 µM
SF-268 CNS
  GI50: 3.23 µM
  TGI: > 100 µM
HCC-2998 colon
  GI50: 2.36 µM
  TGI: > 100 µM
KM12 colon
  GI50: 0.628 µM
  TGI: > 100 µM
UACC-62 melanoma
  GI50: 0.451 µM
  TGI: > 100 µM
A549 NSCLC
  GI50: 3.02 µM
  TGI: > 100 µM
MDA-MB-435
  GI50: 0.3 µM
  TGI: 1.01 µM
HOP-92 NSCLC
  GI50: 0.49 µM
  TGI: 7.47 µM
UACC-257 melanoma
  GI50: 9.09 µM
  TGI: > 100 µM
SR leukemia
  GI50: 0.232 µM
  TGI: > 100 µM

## O=C1c2ccccc2-c2c1c1c(O)cccc1n2Cc1ccccc1
RPMI-8226 leukemia
  GI50: 30 µM
  TGI: > 100 µM
SF-268 CNS
  GI50: 6.58 µM
  TGI: 37.9 µM
HCC-2998 colon
  GI50: 12.7 µM
  TGI: 39.1 µM
KM12 colon
  GI50: 15.8 µM
  TGI: 84.9 µM
UACC-62 melanoma
  GI50: 7.35 µM
  TGI: 27.2 µM
A549 NSCLC
  GI50: 16.8 µM
  TGI: > 100 µM
MDA-MB-435
  GI50: 19.1 µM
  TGI: > 100 µM
HOP-92 NSCLC
  GI50: 4.22 µM
  TGI: 19.8 µM
UACC-257 melanoma
  GI50: 17.7 µM
  TGI: 68.5 µM
SR leukemia
  GI50: 30.5 µM
  TGI: > 100 µM

## Cn1cc(-c2ccc3c(c2)ncn3-c2cc(NS(=O)(=O)C3CC3)cc(-c3ccc(F)cc3F)c2)cn1
RPMI-8226 leukemia
  GI50: 3.97 µM
  TGI: 32.2 µM
SF-268 CNS
  GI50: 3.01 µM
  TGI: > 100 µM
HCC-2998 colon
  GI50: 22.7 µM
  TGI: 80.1 µM
KM12 colon
  GI50: 4.96 µM
  TGI: > 100 µM
UACC-62 melanoma
  GI50: 25.5 µM
  TGI: 73.1 µM
A549 NSCLC
  GI50: 9.01 µM
  TGI: > 100 µM
MDA-MB-435
  GI50: 21.9 µM
  TGI: > 100 µM
HOP-92 NSCLC
  GI50: 2.83 µM
  TGI: 62.4 µM
UACC-257 melanoma
  GI50: 27.5 µM
  TGI: > 100 µM
SR leukemia
  GI50: 6 µM
  TGI: > 100 µM

## Nc1cc(C(F)(F)F)c(-c2nc(N3CCOCC3)nc(N3CCOCC3)n2)cn1
RPMI-8226 leukemia
  GI50: 0.709 µM
  TGI: > 75.9 µM
SF-268 CNS
  GI50: 0.476 µM
  TGI: > 72.5 µM
HCC-2998 colon
  GI50: 0.633 µM
  TGI: > 88 µM
KM12 colon
  GI50: 0.835 µM
  TGI: 59.9 µM
UACC-62 melanoma
  GI50: 0.202 µM
  TGI: 1.38 µM
A549 NSCLC
  GI50: 0.416 µM
  TGI: 8.62 µM
MDA-MB-435
  GI50: 0.398 µM
  TGI: 5.15 µM
HOP-92 NSCLC
  GI50: 0.139 µM
  TGI: 0.765 µM
UACC-257 melanoma
  GI50: 0.293 µM
  TGI: 2.98 µM
SR leukemia
  GI50: 1.04 µM
  TGI: 28.4 µM

## COc1ccc(-n2c(=O)c3ccccc3n(Cc3ccc(C(=O)NO)cc3)c2=O)cc1
RPMI-8226 leukemia
  GI50: 2.42 µM
  TGI: 12.6 µM
SF-268 CNS
  GI50: 1.91 µM
  TGI: 4.25 µM
HCC-2998 colon
  GI50: 1.81 µM
  TGI: 3.58 µM
KM12 colon
  GI50: 1.77 µM
  TGI: 4.08 µM
UACC-62 melanoma
  GI50: 1.8 µM
  TGI: 4.28 µM
A549 NSCLC
  GI50: 4.1 µM
  TGI: 16.3 µM
MDA-MB-435
  GI50: 1.74 µM
  TGI: 3.56 µM
HOP-92 NSCLC
  GI50: 2.1 µM
  TGI: 5.33 µM
UACC-257 melanoma
  GI50: 1.65 µM
  TGI: 4.3 µM
SR leukemia
  GI50: 2.86 µM
  TGI: > 100 µM

## O=C1c2ccccc2N1C(=O)c1ccccc1[N+](=O)[O-]
RPMI-8226 leukemia
  TGI: > 100 µM
SF-268 CNS
  TGI: > 100 µM
HCC-2998 colon
  TGI: > 100 µM
KM12 colon
  TGI: > 100 µM
UACC-62 melanoma
  TGI: > 100 µM
A549 NSCLC
  TGI: > 100 µM
MDA-MB-435
  TGI: > 100 µM
HOP-92 NSCLC
  TGI: > 100 µM
UACC-257 melanoma
  TGI: > 100 µM
SR leukemia
  TGI: > 100 µM

## CCOC(=O)C#Cc1c(C(=O)OCC)nnn1[C@@H]1O[C@H](COC)[C@@H](OC)[C@H]1OC
RPMI-8226 leukemia
  GI50: 4.16 µM
  TGI: 17.2 µM
SF-268 CNS
  GI50: 16.3 µM
  TGI: 35.6 µM
HCC-2998 colon
  GI50: 18 µM
  TGI: 32.8 µM
KM12 colon
  GI50: 16.7 µM
  TGI: 33.3 µM
UACC-62 melanoma
  GI50: 2.19 µM
  TGI: 5.41 µM
A549 NSCLC
  GI50: 20.9 µM
  TGI: 40.4 µM
MDA-MB-435
  GI50: 12.1 µM
  TGI: 24.5 µM
HOP-92 NSCLC
  GI50: 2.8 µM
  TGI: 7.61 µM
UACC-257 melanoma
  GI50: 3.38 µM
  TGI: 8.29 µM
SR leukemia
  GI50: 1.64 µM
  TGI: 4.66 µM

## COc1cc(/C=C/c2cc(/C=C/c3ccc(O)c(OC)c3)n(C(=O)Nc3ccc(C)cc3)n2)ccc1O
RPMI-8226 leukemia
  GI50: 0.261 µM
  TGI: 1.34 µM
SF-268 CNS
  GI50: 0.628 µM
  TGI: 7.44 µM
HCC-2998 colon
  GI50: 2.12 µM
  TGI: 9.46 µM
KM12 colon
  GI50: 0.345 µM
  TGI: 3.18 µM
UACC-62 melanoma
  GI50: 0.519 µM
  TGI: 2.61 µM
A549 NSCLC
  GI50: 0.419 µM
  TGI: 4.6 µM
MDA-MB-435
  GI50: 0.115 µM
  TGI: 0.391 µM
HOP-92 NSCLC
  GI50: 0.682 µM
  TGI: 4.18 µM
UACC-257 melanoma
  GI50: 1.06 µM
  TGI: 4.95 µM
SR leukemia
  GI50: 0.0268 µM
  TGI: 0.15 µM

## OC[C@H]1C[C@](O)(c2ccc(F)cc2)[C@@H](c2ccc(F)cc2)O1
RPMI-8226 leukemia
  GI50: > 100 µM
  TGI: > 100 µM
SF-268 CNS
  GI50: > 100 µM
  TGI: > 100 µM
HCC-2998 colon
  GI50: > 100 µM
  TGI: > 100 µM
KM12 colon
  GI50: > 100 µM
  TGI: > 100 µM
UACC-62 melanoma
  GI50: > 100 µM
  TGI: > 100 µM
A549 NSCLC
  GI50: > 100 µM
  TGI: > 100 µM
MDA-MB-435
  GI50: > 100 µM
  TGI: > 100 µM
HOP-92 NSCLC
  GI50: 66 µM
  TGI: > 100 µM
UACC-257 melanoma
  GI50: > 100 µM
  TGI: > 100 µM
SR leukemia
  GI50: > 100 µM
  TGI: > 100 µM

## CC(=O)O[C@H]([C@H](OC(C)=O)[C@H](C)OC(C)=O)[C@@H](/C=C/[C@H]1CC=CC(=O)O1)OC(C)=O
RPMI-8226 leukemia
  GI50: 26.3 µM
  TGI: 89.8 µM
SF-268 CNS
  GI50: 41.6 µM
  TGI: > 100 µM
HCC-2998 colon
  GI50: 24.1 µM
  TGI: 68.9 µM
KM12 colon
  GI50: > 100 µM
  TGI: > 100 µM
UACC-62 melanoma
  GI50: > 100 µM
  TGI: > 100 µM
A549 NSCLC
  GI50: > 100 µM
  TGI: > 100 µM
MDA-MB-435
  GI50: 41.2 µM
  TGI: > 100 µM
HOP-92 NSCLC
  GI50: 23.5 µM
  TGI: 62.4 µM
UACC-257 melanoma
  GI50: > 100 µM
  TGI: > 100 µM
SR leukemia
  GI50: 73.7 µM
  TGI: > 100 µM

## CN1CCN(C(=O)/C=C/c2ccc([N+](=O)[O-])o2)CC1
RPMI-8226 leukemia
  GI50: 16 µM
  TGI: 64.5 µM
SF-268 CNS
  GI50: 20.9 µM
  TGI: 84.1 µM
HCC-2998 colon
  GI50: 18.2 µM
  TGI: 38.1 µM
KM12 colon
  GI50: 24 µM
  TGI: > 100 µM
UACC-62 melanoma
  GI50: 11.1 µM
  TGI: 23.4 µM
A549 NSCLC
  GI50: 18.8 µM
  TGI: 41.5 µM
MDA-MB-435
  GI50: 3.12 µM
  TGI: 14.9 µM
HOP-92 NSCLC
  GI50: 11.4 µM
  TGI: 26.1 µM
UACC-257 melanoma
  GI50: 7.78 µM
  TGI: 21.2 µM
SR leukemia
  GI50: 4.23 µM
  TGI: 75.1 µM

## O=C1C[C@@H]2OCC=C3C[N+]4([O-])CC[C@]56c7ccccc7N1[C@H]5[C@H]2[C@H]3C[C@@H]64 (stereo not given in full)
RPMI-8226 leukemia
  GI50: > 100 µM
  TGI: > 100 µM
SF-268 CNS
  GI50: > 100 µM
  TGI: > 100 µM
HCC-2998 colon
  GI50: > 100 µM
  TGI: > 100 µM
KM12 colon
  GI50: > 100 µM
  TGI: > 100 µM
UACC-62 melanoma
  GI50: > 100 µM
  TGI: > 100 µM
A549 NSCLC
  GI50: > 100 µM
  TGI: > 100 µM
MDA-MB-435
  GI50: > 100 µM
  TGI: > 100 µM
HOP-92 NSCLC
  GI50: > 100 µM
  TGI: > 100 µM
UACC-257 melanoma
  GI50: > 100 µM
  TGI: > 100 µM
SR leukemia
  GI50: > 100 µM
  TGI: > 100 µM

## COc1cc(NC(=O)COc2ccccc2)c(C(N)=O)cc1OC
RPMI-8226 leukemia
  GI50: 2.27 µM
  TGI: > 100 µM
SF-268 CNS
  GI50: 6.77 µM
  TGI: 45.7 µM
HCC-2998 colon
  GI50: 3.33 µM
  TGI: 68.3 µM
KM12 colon
  GI50: 0.442 µM
  TGI: > 100 µM
UACC-62 melanoma
  GI50: 2.52 µM
  TGI: > 100 µM
A549 NSCLC
  GI50: 0.917 µM
  TGI: > 100 µM
MDA-MB-435
  GI50: 0.203 µM
  TGI: 0.875 µM
HOP-92 NSCLC
  GI50: 17.7 µM
  TGI: 52.5 µM
UACC-257 melanoma
  GI50: > 100 µM
  TGI: > 100 µM
SR leukemia
  GI50: 0.515 µM
  TGI: > 100 µM

## COc1ccc(Cn2c(Br)c3c(c2-c2cc(OC)c(OC)c(OC)c2)CCc2sc(N)nc2-3)cc1
RPMI-8226 leukemia
  GI50: 3.16 µM
  TGI: 32.4 µM
SF-268 CNS
  GI50: 1.73 µM
  TGI: 20.8 µM
HCC-2998 colon
  GI50: 2.93 µM
  TGI: 12.3 µM
KM12 colon
  GI50: 1.18 µM
  TGI: > 30 µM
UACC-62 melanoma
  GI50: 0.598 µM
  TGI: 15 µM
A549 NSCLC
  GI50: 2.23 µM
  TGI: > 100 µM
MDA-MB-435
  GI50: 0.224 µM
  TGI: 0.537 µM
HOP-92 NSCLC
  GI50: 0.477 µM
  TGI: 2.88 µM
UACC-257 melanoma
  GI50: 11.8 µM
  TGI: 51.3 µM
SR leukemia
  GI50: 0.41 µM
  TGI: 5.67 µM

Reference: PubChem BioAssay (NCI)
